Experimental data: patent publication US10966426B2, “Herbicidal compositions comprising phenylpyrimidines” (BASF SE, priority 2016, dated 2021)

What was measured:
Format in all cases: in vivo
[1] = tested on: Polygonum aviculare; assay: greenhouse post-emergence treatment, POLAV; settings: POLAV; for % activity, solo application: Table X4
Method in brief: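 Foliar application to greenhouse-grown plants 3–15 cm tall in humus-containing loamy sand; response assessed on a 0–100 scale after 2–4 weeks, with Colby's E=X+Y−(X·Y/100) as the additive expectation.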

[2] = tested on: Echinocloa crus-galli; assay: greenhouse post-emergence treatment, ECHCG; settings: ECHCG
Method in brief: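 Each species was grown separately and treated once it reached 3 to 15 cm, using actives suspended or emulsified in water. Plants were kept at 10-25° C. or 20-35° C., depending on species. Damage is a 0–100 rating taken during 2 to 4 weeks.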

[3] = tested on: Papaver rhoeas; assay: greenhouse pre-emergence treatment, PAPRH; settings: 20 DAT; for % activity, solo application: Table X6
Description: The culture containers used were plastic pots containing loamy sand with approximately 3.0% of humus as substrate. The seeds of the test plants were sown separately for each species.
For the pre-emergence treatment, the active compounds, suspended or emulsified in water, were applied directly after sowing by means of finely distributing nozzles. The containers were irrigated gently to promote germination and growth and subsequently covered with transparent plastic hoods until the plants had rooted. This cover caused uniform germination of the test plants unless this was adversely affected by the active compounds.
Depending on the species, the plants were kept at 10-25° C. and 20-35° C., respectively.
The test period extended over 2 to 4 weeks. During this time, the plants were tended and their response to the individual treatments was evaluated.
Evaluation was carried out using a scale from 0 to 100. 100 means no emergence of the plants, or complete destruction of at least the above-ground parts, and 0 means no damage or normal course of growth. A good herbicidal activity is given at values of at least 70, and very good herbicidal activity is given at values of at least 85.
The respective stated components A and B, and if appropriate, C were formulated as a 10% by weight strength emulsion concentrate and, with addition of the amount of solvent system, introduced into the spray liquor used for applying the active compound. In the examples, the solvent used was water.
In the examples below, using the method of S. R. Colby (1967) “Calculating synergistic and antagonistic responses of herbicide combinations”, Weeds 15, p. 22ff., the value E, which is expected if the activity of the individual active compounds is only additive, was calculated. E=X+Y−(X·Y/100) where X=effect in percent using herbicide A at an application rate a; • Y=effect in percent using herbicide B at application rate b; • E=expected effect (in %) of herbicide A+herbicide B at application rates a+b.

[4] = tested on: Bromus sterilis; assay: greenhouse pre-emergence treatment, BROST; settings: BROST
Method in brief: (§1)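 Seeds were sown per species in pots of loamy sand with about 3.0% humus, sprayed with the aqueous spray liquor directly after sowing, watered and hooded until rooted, then kept at 10-25° C. or 20-35° C. for 2 to 4 weeks. Damage was scored 0 (none) to 100 (no emergence/complete destruction).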

[5] = tested on: Brachiaria decumbens; assay: greenhouse pre-emergence treatment, BRADC; settings: BRADC
Method in brief: as §1

[6] = tested on: Digitaria sanguinalis; assay: greenhouse pre-emergence treatment, DIGSA; settings: DIGSA; for % activity, solo application: 62.5 gai/ha
Method in brief: as §1

[7] = tested on: Setaria viridis; assay: greenhouse pre-emergence treatment, SETVI; settings: SETVI
Method in brief: as §1

[8] = 20 DAT, solo Ex. 5 31.25 gai/ha
[9] = Table X13, 20 DAT, solo Ex. 5 31.25 gai/ha
[10] = Table X9, 21 DAT, solo Ex. 5 125 gai/ha

O=C(O)c1nc(C2CC2)ncc1-c1ccccc1Cl [Ex. 5]
% activity, solo application ([1]; 125 gai/ha, 20 DAT): 95% | % activity, solo application ([1]; 250 gai/ha, 20 DAT): 95% | % activity ([1]; Ex. 5 solo, 62.5 gai/ha, 21 DAT): 90% | % activity ([1]; 20 DAT, solo Ex. 5 62.5 gai/ha): 90% | % activity ([1]; 20 DAT, solo Ex. 5 125 gai/ha): 90% | % activity ([1]; 20 DAT, solo Ex. 5 125 gai/ha (Table X66)): 90% | % activity, solo application ([2]; 62.5 gai/ha, 20 DAT, Table X3): 65% | % activity ([2]; solo Ex. 5 125 gai/ha, 21 DAT): 65% | % activity ([2]; solo Ex. 5 250 gai/ha, 21 DAT): 65% | % activity ([2]; Table X12, 20 DAT, solo Ex. 5 125 gai/ha): 65% | % activity ([3]; solo Ex. 5 31.25 gai/ha): 0% | % activity, solo application ([3]; 31.25 gai/ha): 20% | % activity, solo application ([3]; 125 gai/ha): 85% | % activity ([3]; solo, 62.5 gai/ha): 70% | % activity, solo application ([4]; 62.5 gai/ha, 20 DAT, Table X1): 65% | % activity, solo application ([4]; 125 gai/ha, 20 DAT, Table X1): 80% | % activity, solo application ([4]; 125 gai/ha, 20 DAT, Table X6): 65% | % activity [4, 8]: 5% | % activity ([4]; solo, 62.5 gai/ha, 20 DAT): 45% | % activity ([4]; solo, 125 gai/ha, 21 DAT): 75% | % activity, solo application ([5]; 62.5 gai/ha, 20 DAT, Table X2): 80% | % activity, solo application ([5]; 125 gai/ha, 20 DAT, Table X6): 95% | % activity [5, 8]: 20% | % activity ([5]; 20 DAT, solo Ex. 5 62.5 gai/ha): 60% | % activity ([5]; 20 DAT, solo Ex. 5 125 gai/ha): 70% | % activity ([5]; Ex. 5 solo, 62.5 gai/ha, 20 DAT): 60% | % activity ([5]; Ex. 5 solo, 125 gai/ha, 20 DAT): 70% | % activity [5, 9]: 85% | % activity ([5]; solo, 31.25 gai/ha, 20 DAT): 55% | % activity ([5]; solo, 62.5 gai/ha, 20 DAT): 85% | % activity, solo application ([6]; 20 DAT, Table X2): 65% | % activity, solo application ([6]; 20 DAT, Table X6): 65% | % activity [6, 8]: 40% | % activity [6, 10]: 90% | % activity ([6]; Table X13, 20 DAT, solo Ex. 5 125 gai/ha): 90% | % activity ([6]; solo, 31.25 gai/ha, 20 DAT): 65% | % activity ([6]; solo, 125 gai/ha, 21 DAT): 60% | % activity ([6]; solo, 250 gai/ha, 21 DAT): 65% | % activity, solo application ([7]; 31.25 gai/ha, 20 DAT, Table X6): 0% | % activity, solo application ([7]; 125 gai/ha, 20 DAT, Table X1): 45% | % activity, solo application ([7]; 125 gai/ha, 20 DAT, Table X2): 60% | % activity, solo application ([7]; 125 gai/ha, 20 DAT, Table X6): 60% | % activity, solo application ([7]; 250 gai/ha, 20 DAT, Table X1): 65% | % activity ([7]; Ex. 5 solo, 125 gai/ha, 20 DAT): 50% | % activity ([7]; 20 DAT, solo Ex. 5 62.5 gai/ha): 30% | % activity ([7]; 20 DAT, solo Ex. 5 125 gai/ha): 50% | % activity ([7]; solo Ex. 5 31.25 gai/ha, 20 DAT): 35% | % activity ([7]; solo Ex. 5 125 gai/ha, 20 DAT): 45% | % activity [7, 10]: 50% | % activity [7, 9]: 20% | % activity ([7]; Table X13, 20 DAT, solo Ex. 5 62.5 gai/ha): 35% | % activity ([7]; solo, 31.25 gai/ha, 20 DAT): 10% | % activity ([7]; solo, 62.5 gai/ha, 21 DAT): 45%
